Data taken from patent EP4737449A1 (Changchun Genescience Pharmaceutical Co., Ltd., priority 2023, dated 2025).

These compounds were tested against T1, p53-Y220C mutant protein (Homo sapiens, UniProt P04637, Y220C) (assay: In vitro DNA binding activity assay (TR-FRET)). Conditions: concentration required to increase the binding activity of protein to DNA by 50%.
T1 construct: The recombinant Y220C p53 DBD protein with his-tag
Type: biochemical
Experimental: The activity of the compound to modulate the binding of the p53-Y220C mutant protein to DNA was detected using TR-FREt (Time-Resolved Fluorescence Resonance Energy Transfer). The recombinant Y220C p53 DBD protein with his-tag and the DNA sequence with biotin label were prepared firstly. Donor Eu(Europium)-SA(Streptavidin) can be bound to the DNA sequence through biotin, receptor for his antibody attached to alphaphycocyanin(APC, allophycocyanin), and his antibody can be bound to the Y220C p53 DBD protein with his-tag. When exposed to an excitation light with a wavelength of 340 nm, the donor Eu(Europium)-SA(Streptavidin) can emit fluorescence with a wavelength of 615 nm. If the donor and the receptor are close to each other, the donor will transfer part of the energy to the receptor and produce fluorescence with a wavelength of 665 nm. […] If there is no interaction, only 615 nm fluorescence is produced. • 1) Experimental steps • a. Adding 4 µL of dilute compound solution to each well of a 384-well microplate; • a. Adding 4 µL of 4X P53 working solution to each well of the 384-well microplate; • c. Sealing the 384-well microplate and equilibrating the system at room temperature for 60 min; • d. Adding 4 µl of biotin DNA solution to the 384-well microplate; • e. Adding 4 µl of 4X test solution (MAb Anti-6His-Eu and streptavidin-d2) to each well of the 384-well microplate; • f. Incubating overnight in the dark; and • g. Reading data of 665 nm and 615 nm wavelengths on the BMG multifunctional microplate reader. • 2) Data analysis • a. Calculating the ratio for each well (Ratio665 nm/615 nm-Ratiobackground); • b. Calculating the activity percentage (%activity) as follows: C = (Ave_Ac−Ave_Ba)/(Ave_Dc−Ave_Bd) [formula] R data = (A−Ave_Ba−CD)/(D−Ave_Bd)*(Ave_Dc−Ave_Bd) [formula] % Activity = R data/Ave_VC*100 [formula] • A: Fluorescence intensity of the sample at 665 nm; D: Fluorescence intensity of the sample at 615 nm; • Ba: Background fluorescence intensity of the culture plate at 665 nm; Bd: Background fluorescence intensity of the culture plate at 615 nm; • Dc: Background fluorescence intensity of HIS-E at 615 nm; Ac: Background fluorescence intensity of streptavidin-d2 at 665 nm); and • c. Calculating SC150 and plotting dose-effect curve
Compared to the absence of the compound of the present invention, the activation percentage of binding of the p53 mutant protein to DNA in the presence of the compound of the present invention is expressed as SC150, which indicates the concentration of the compound required to increase the DNA binding activity of the p53 mutant protein by 50%. The SC150 is calculated using Prism™.

Compared with `CN(C)C1CC[C@@H](Nc2cccc3c(CC(F)(F)F)c(C#CCNC(=O)c4cnn(C(C)(C)C)c4N)nn23)[C@@H](F)C1` (single isomer, unassigned) [Compound 358-B], `CN1CCCC(Nc2cccc3c(CC(F)(F)F)c(C#CCNC(=O)c4cnn(C(C)(C)C)c4N)nn23)CC1` (single isomer, unassigned) [Compound 369-A, 5-amino-1-tert-butyl-N-(3-(7-[(1-methylazepan-4-yl)amino]-3-(2,2,2-trifluoroethyl)pyrazolo[1,5-a]pyridin-2-yl)prop-2-yn-1-yl)-1H-pyrazole-4-carboxamide] is 4-fold lower in SC150: 32 nM for the first, 8 nM for the second.

Compared with `CN1CCCC(Nc2cccc3c(CC(F)(F)F)c(C#CCNC(=O)c4cnn(C(C)(C)C)c4N)nn23)CC1` (single isomer, unassigned) [Compound 369-B, 5-amino-1-tert-butyl-N-(3-(7-[(1-methylazepan-4-yl)amino]-3-(2,2,2-trifluoroethyl)pyrazolo[1,5-a]pyridin-2-yl)prop-2-yn-1-yl)-1H-pyrazole-4-carboxamide], `CN1CC[C@@H](Nc2cccc3c(CC(F)(F)F)c(C#CCNC(=O)c4cnn(C5CC5)c4)nn23)[C@@H](F)C1` [Compound 005, 1-cyclopropyl-N-[3-(7-{[(3S,4R)-3-fluoro-1-methylpiperidin-4-yl]amino}-3-(2,2,2-trifluoroethyl)pyrazolo[1,5-a]pyridin-2-yl)prop-2-yn-1-yl]-1H-pyrazole-4-carboxamide] is 3.2-fold higher in SC150: 5 nM for the first, 16 nM for the second.

`CN1CC[C@@H](Nc2cccc3c(CC(F)(F)F)c(C#CCNC(=O)c4cnn(C5CCC5)c4)nn23)[C@@H](F)C1` [Compound 006, 1-cyclobutyl-N-[3-(7-{[(3S,4R)-3-fluoro-1-methylpiperidin-4-yl]amino}-3-(2,2,2-trifluoroethyl)pyrazolo[1,5-a]pyridin-2-yl)prop-2-yn-1-yl]-1H-pyrazole-4-carboxamide] and `CN1CC[C@@H](Nc2cccc3c(CC(F)(F)F)c(C#CCNC(=O)c4cnn(C5CCCC5)c4)nn23)[C@@H](F)C1` [Compound 007, 1-cyclopentyl-N-[3-(7-{[(3S,4R)-3-fluoro-1-methylpiperidin-4-yl]amino}-3-(2,2,2-trifluoroethyl)pyrazolo[1,5-a]pyridin-2-yl)prop-2-yn-1-yl]-1H-pyrazole-4-carboxamide] are the same in SC150: 11 nM for the first, 11 nM for the second.

`CN1CC[C@@H](Nc2cccc3c(CC(F)(F)F)c(C#CCNC(=O)c4cnn(C5COC5)c4)nn23)[C@@H](F)C1` [Compound 009, N-[3-(7-{[(3S,4R)-3-fluoro-1-methylpiperidin-4-yl]amino}-3-(2,2,2-trifluoroethyl)pyrazolo[1,5-a]pyridin-2-yl)prop-2-yn-1-yl]-1-(oxetan-3-yl)-1H-pyrazole-4-carboxamide] and `CN1CC[C@@H](Nc2cccc3c(CC(F)(F)F)c(C#CCNC(=O)c4cnn(C5CCOCC5)c4)nn23)[C@@H](F)C1` [Compound 013, N-[3-(7-{[(3S,4R)-3-fluoro-1-methylpiperidin-4-yl]amino}-3-(2,2,2-trifluoroethyl)pyrazolo[1,5-a]pyridin-2-yl)prop-2-yn-1-yl]-1-((tetrahydro-2H-pyran-4-yl))-1H-pyrazole-4-carboxamide] are the same in SC150: 7 nM for the first, 7 nM for the second.

First: CN1CC[C@@H](Nc2cccc3c(CC(F)(F)F)c(C#CCNC(=O)c4cnn(C5(C)CC5)c4)nn23)[C@@H](F)C1 [Compound 010, N-[3-(7-{[(3S,4R)-3-fluoro-1-methylpiperidin-4-yl]amino}-3-(2,2,2-trifluoroethyl)pyrazolo[1,5-a]pyridin-2-yl)prop-2-yn-1-yl]-1-(1-methylcyclopropyl)-1H-pyrazole-4-carboxamide]
Second: CN1CCC(n2cc(C(=O)NCC#Cc3nn4c(N[C@@H]5CCN(C)C[C@@H]5F)cccc4c3CC(F)(F)F)cn2)CC1 [Compound 012, N-[3-(7-{[(3S,4R)-3-fluoro-1-methylpiperidin-4-yl]amino}-3-(2,2,2-trifluoroethyl)pyrazolo[1,5-a]pyridin-2-yl)prop-2-yn-1-yl]-1-(1-methylpiperidin-4-yl)-1H-pyrazole-4-carboxamide]
The SC150 of the first is 2.2-fold higher: 9 nM for the first, 4 nM for the second.
